Our source for the IC50 values is patent US11780830B2, “Triazolone derivatives or salts thereof and pharmaceutical compositions comprising the same” (YUHAN CORPORATION, priority 2018, dated 2023).

What is called IC50 is the concentration that inhibits the measured activity by half.

Counter-ions that a name gives are not always drawn.

What all share (type): biochemical
One experiment has as its target T1, recombinant human VAP-1 (Homo sapiens, UniProt Q16853).
T1 construct: purchased R&D systems
T1 sequence (Q16853 1-763): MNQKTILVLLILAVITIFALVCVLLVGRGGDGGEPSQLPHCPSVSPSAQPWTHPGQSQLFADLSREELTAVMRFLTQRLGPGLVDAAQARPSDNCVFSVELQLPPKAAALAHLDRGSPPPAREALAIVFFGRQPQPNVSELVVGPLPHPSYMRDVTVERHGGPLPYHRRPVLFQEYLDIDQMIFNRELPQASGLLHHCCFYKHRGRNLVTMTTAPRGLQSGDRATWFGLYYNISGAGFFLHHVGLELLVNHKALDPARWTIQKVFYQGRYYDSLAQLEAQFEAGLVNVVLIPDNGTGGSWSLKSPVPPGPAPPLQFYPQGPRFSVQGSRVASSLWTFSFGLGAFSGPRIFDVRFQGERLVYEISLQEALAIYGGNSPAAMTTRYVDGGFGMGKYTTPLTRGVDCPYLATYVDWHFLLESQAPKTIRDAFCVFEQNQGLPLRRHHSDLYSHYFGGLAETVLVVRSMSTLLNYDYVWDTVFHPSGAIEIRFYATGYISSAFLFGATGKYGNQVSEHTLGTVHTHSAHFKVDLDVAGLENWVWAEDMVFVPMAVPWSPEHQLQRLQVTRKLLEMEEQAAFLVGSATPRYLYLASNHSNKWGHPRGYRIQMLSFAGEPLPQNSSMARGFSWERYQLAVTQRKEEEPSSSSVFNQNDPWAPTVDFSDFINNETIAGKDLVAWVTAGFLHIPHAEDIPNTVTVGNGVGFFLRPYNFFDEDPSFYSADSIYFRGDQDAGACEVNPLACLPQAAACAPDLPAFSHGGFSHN
Briefly: Activity on recombinant human VAP-1, HRP-coupled Amplex Red hydrogen peroxide assay. The following applies: substrate 1 mM benzylamine; compound incubated with enzyme at 37° C. for 30 minutes; pH 7.4; read-out: Inhibitory Activity (IC50, nM) human VAP-1. The method, boiled down: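 Dose-response IC50 determined from reduction in resorufin signal rate (544/590 nm, 1-2 h), with 30 min compound preincubation at 37 °C and 1 mM benzylamine as substrate.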

Experiment [1] has as its target T2, recombinant human MAO-A (monoamine oxidase-A) (Homo sapiens, UniProt P21397).
T2 construct: purchased Sigma-Aldrich
T2 sequence (P21397 1-527): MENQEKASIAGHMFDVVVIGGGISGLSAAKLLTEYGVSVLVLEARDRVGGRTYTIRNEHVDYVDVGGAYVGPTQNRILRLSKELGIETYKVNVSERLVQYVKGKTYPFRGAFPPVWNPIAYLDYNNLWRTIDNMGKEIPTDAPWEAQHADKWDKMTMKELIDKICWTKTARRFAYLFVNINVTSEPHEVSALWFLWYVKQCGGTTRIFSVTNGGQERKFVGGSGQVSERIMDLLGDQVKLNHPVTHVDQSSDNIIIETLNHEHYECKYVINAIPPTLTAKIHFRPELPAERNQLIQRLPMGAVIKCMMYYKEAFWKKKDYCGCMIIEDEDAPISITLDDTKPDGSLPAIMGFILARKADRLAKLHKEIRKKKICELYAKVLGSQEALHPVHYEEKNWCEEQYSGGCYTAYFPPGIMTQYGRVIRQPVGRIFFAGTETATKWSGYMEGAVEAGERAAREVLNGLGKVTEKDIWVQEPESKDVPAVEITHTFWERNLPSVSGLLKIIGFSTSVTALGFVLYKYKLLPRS
Briefly: Activity on recombinant human MAO-A, method similar to the VAP-1 assay. To be noted: substrate 0.5 mM tyramine; read-out: Inhibitory Activity (IC50, nM) MAO-A. In outline: (§1)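 Amplex Red/HRP coupled read-out of H2O2 with 0.5 mM tyramine for MAO-A or 1 mM benzylamine for MAO-B, following a 30-min compound–enzyme preincubation at 37° C. IC50 from percent inhibition of signal rate relative to uninhibited control.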

The target of experiment [2] is T3, recombinant human MAO-B (monoamine oxidase-B) (Homo sapiens, UniProt P27338).
T3 construct: purchased Sigma-Aldrich
T3 sequence (P27338 1-520): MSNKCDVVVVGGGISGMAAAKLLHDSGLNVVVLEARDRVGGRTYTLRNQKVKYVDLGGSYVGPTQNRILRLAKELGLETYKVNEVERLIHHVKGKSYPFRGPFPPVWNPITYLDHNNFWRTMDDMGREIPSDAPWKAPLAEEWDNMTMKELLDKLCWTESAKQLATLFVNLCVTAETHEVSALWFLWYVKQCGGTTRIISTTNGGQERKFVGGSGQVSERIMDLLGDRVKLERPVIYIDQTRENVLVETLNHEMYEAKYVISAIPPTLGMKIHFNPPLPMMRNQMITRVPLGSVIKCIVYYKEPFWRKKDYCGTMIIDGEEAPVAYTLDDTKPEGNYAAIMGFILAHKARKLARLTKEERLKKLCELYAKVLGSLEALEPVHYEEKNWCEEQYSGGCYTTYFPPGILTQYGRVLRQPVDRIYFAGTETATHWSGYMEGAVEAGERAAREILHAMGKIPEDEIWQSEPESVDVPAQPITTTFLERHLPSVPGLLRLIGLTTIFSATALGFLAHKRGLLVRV
Briefly: Activity on recombinant human MAO-B, method similar to the VAP-1 assay. To be noted: substrate 1 mM benzylamine; read-out: Inhibitory Activity (IC50, nM) MAO-B. In outline:
as §1

Experiment [3] has as its target T4, recombinant human DAO (diamine oxidase) (Homo sapiens, UniProt P19801).
T4 construct: purchased R&D systems
T4 sequence (P19801 20-751): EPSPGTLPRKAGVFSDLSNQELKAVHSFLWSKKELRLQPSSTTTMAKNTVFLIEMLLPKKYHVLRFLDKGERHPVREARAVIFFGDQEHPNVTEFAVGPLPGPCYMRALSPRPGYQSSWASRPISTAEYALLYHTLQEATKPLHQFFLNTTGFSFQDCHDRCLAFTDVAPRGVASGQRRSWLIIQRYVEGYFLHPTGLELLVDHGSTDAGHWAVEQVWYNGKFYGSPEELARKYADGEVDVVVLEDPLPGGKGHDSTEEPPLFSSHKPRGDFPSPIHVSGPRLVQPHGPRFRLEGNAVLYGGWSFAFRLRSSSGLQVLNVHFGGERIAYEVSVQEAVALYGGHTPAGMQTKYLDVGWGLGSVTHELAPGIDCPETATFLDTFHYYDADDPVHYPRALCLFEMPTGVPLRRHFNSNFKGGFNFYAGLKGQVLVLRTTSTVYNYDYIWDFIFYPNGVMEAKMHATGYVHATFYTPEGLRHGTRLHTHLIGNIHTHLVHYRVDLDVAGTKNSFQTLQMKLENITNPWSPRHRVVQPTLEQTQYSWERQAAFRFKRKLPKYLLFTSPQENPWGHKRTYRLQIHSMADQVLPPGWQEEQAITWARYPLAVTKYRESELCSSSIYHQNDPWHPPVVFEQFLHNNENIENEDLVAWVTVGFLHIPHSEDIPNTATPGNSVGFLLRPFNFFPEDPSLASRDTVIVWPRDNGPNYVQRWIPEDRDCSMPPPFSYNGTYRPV
The experiment can be described thus: Activity on recombinant human DAO, method similar to the VAP-1 assay. The following applies: substrate 1 mM putrescine; read-out: Inhibitory Activity (IC50, nM) DAO. The method, boiled down: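 Inhibition of recombinant human diamine oxidase (DAO, R&D systems) was assessed by the same approach as the VAP-1 assay, using 1 mM putrescine as substrate. Hydrogen peroxide formed was detected through an HRP-coupled Amplex Red reaction yielding fluorescent resorufin, read at 544 nm excitation and 590 nm emission. IC50 values came from four-parameter logistic fitting in GraphPad Prism.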

`NC/C(=C/F)Cn1ncn(Cc2ccc(-c3ccc4c(c3)OCO4)s2)c1=O` [Example 60, 2-[(2Z)-2-(aminomethyl)-3-fluoroprop-2-en-1-yl]-4-[5-(1,3-benzodioxol-5-yl)thiophen-2-yl]methyl-2,4-dihydro-3H-1,2,4-triazol-3-one hydrochloride]: the IC50 on recombinant human VAP-1 is 1.8 nM; in experiment [1], greater than 10000 nM; in experiment [2] it was less than 100 nM; in experiment [3], 3000 nM.

On to `Cn1nccc1-c1ccc(Cn2cnn(C/C(=C/F)CN)c2=O)s1` [Example 156, 2-[(2E)-2-(aminomethyl)-3-fluoroprop-2-en-1-yl]-4-{[5-(1-methyl-1H-pyrazol-5-yl)thiophen-2-yl]methyl}-2,4-dihydro-3H-1,2,4-triazol-3-one], for which the IC50 on recombinant human VAP-1 was 4.2 nM; in experiment [1], greater than 100000 nM; in experiment [2], 28 nM; in experiment [3] it was 1300 nM.

`CN(C)S(=O)(=O)c1ccc(-c2ccc(Cn3cnn(C/C(=C/F)CN)c3=O)s2)cc1` [Example 9, 4-[5-(1-[(2E)-2-(aminomethyl)-3-fluoroprop-2-en-1-yl]-5-oxo-1,5-dihydro-4H-1,2,4-triazol-4-ylmethyl)thiophen-2-yl]-N,N-dimethylbenzenesulfonamide hydrochloride]: the IC50 on recombinant human VAP-1 is 1.5 nM; in experiment [1], greater than 100000 nM; in experiment [2] it was 1600 nM; in experiment [3], 170 nM.

On to `NC/C(=C\F)Cn1ncn(Cc2ccc(-c3ccc4c(c3Cl)NC(=O)CO4)s2)c1=O` [Example 95, 6-[5-[[1-[(E)-2-(aminomethyl)-3-fluoro-allyl]-5-oxo-1,2,4-triazol-4-yl]methyl]-2-thienyl]-5-chloro-4H-1,4-benzoxazin-3-one hydrochloride], for which the half-maximal inhibitory concentration (IC50) on recombinant human VAP-1 was determined as 0.25 nM; in experiment [1], 25000 nM; in experiment [2], 370 nM; in experiment [3], 240 nM.

As for `NC/C(=C\F)Cn1ncn(Cc2ccc(-c3ccc(N4CCCC4)cc3)s2)c1=O` [Example 20, 2-[(2E)-2-(aminomethyl)-3-fluoroprop-2-en-1-yl]-4-(5-[4-(pyrrolidin-1-yl)phenyl]thiophen-2-ylmethyl)-2,4-dihydro-3H-1,2,4-triazol-3-one hydrochloride], the half-maximal inhibitory concentration (IC50) was 5 nM at recombinant human VAP-1, 6600 nM in experiment [1], 730 nM in experiment [2] and 2700 nM in experiment [3].

Consider `NC/C(=C\F)Cn1ncn(Cc2ccc(-c3ccc(-c4noc(C5CC5)n4)cc3)s2)c1=O` [Example 35, 2-[(2E)-2-(aminomethyl)-3-fluoroprop-2-en-1-yl]-4-(5-[4-(5-cyclopropyl-1,2,4-oxadiazol-3-yl)phenyl]thiophen-2-ylmethyl)-2,4-dihydro-3H-1,2,4-triazol-3-one hydrochloride], for which the half-maximal inhibitory concentration (IC50) on recombinant human VAP-1 is 0.89 nM; in experiment [1], 39600 nM; in experiment [2], 247 nM; in experiment [3], 67 nM.

For the compound `NC/C(=C\F)Cn1ncn(Cc2ccc(/C=C/c3cccc(F)c3)s2)c1=O` [Example 118, 2-[(2E)-2-(aminomethyl)-3-fluoroprop-2-en-1-yl]-4-(5-[(E)-2-(3-fluorophenyl)ethenyl]thiophen-2-ylmethyl)-2,4-dihydro-3H-1,2,4-triazol-3-one hydrochloride], the IC50 is 1.1 nM on recombinant human VAP-1, 140000 nM in experiment [1], 58 nM in experiment [2] and 560 nM in experiment [3].

As for `COCCOc1ccc(-c2ccc(Cn3cnn(C/C(=C/F)CN)c3=O)s2)cc1` [Example 19, 2-[(2E)-2-(aminomethyl)-3-fluoroprop-2-en-1-yl]-4-(5-[4-(2-methoxyethoxy)phenyl]thiophen-2-ylmethyl)-2,4-dihydro-3H-1,2,4-triazol-3-one hydrochloride], the IC50 at recombinant human VAP-1 was 4.6 nM; in experiment [1], greater than 100000 nM; in experiment [2], 1100 nM; in experiment [3] it was 1800 nM.

Regarding `NC/C(=C\F)Cn1ncn(Cc2ccc(-c3ccc(-c4ccon4)cc3)s2)c1=O` [Example 40, 2-[(2E)-2-(aminomethyl)-3-fluoroprop-2-en-1-yl]-4-(5-[4-(1,2-oxazol-3-yl)phenyl]thiophen-2-ylmethyl)-2,4-dihydro-3H-1,2,4-triazol-3-one hydrochloride], the IC50 at recombinant human VAP-1 is 0.6 nM; in experiment [1], greater than 100000 nM; in experiment [2], 110 nM; in experiment [3], 370 nM.

In the case of `NC/C(=C\F)Cn1ncn(Cc2ccc(-c3cc(F)c4c(c3)CNC4=O)s2)c1=O` [Example 70, hydrochloride], the IC50 at recombinant human VAP-1 was 0.1 nM; in experiment [1], greater than 100000 nM; in experiment [2], 2800 nM; in experiment [3], 289 nM.

Regarding `Cn1cc(-c2ccc(Cn3cnn(C/C(=C/F)CN)c3=O)s2)ccc1=O` [Example 187, 5-[5-({1-[(2E)-2-(aminomethyl)-3-fluoroprop-2-en-1-yl]-5-oxo-1,5-dihydro-4H-1,2,4-triazol-4-yl}methyl)thiophen-2-yl]-1-methylpyridin-2(1H)-one], the IC50 at recombinant human VAP-1 was 1.3 nM; in experiment [1], greater than 100000 nM; in experiment [2], 1600 nM; in experiment [3], 1800 nM.
